Source: PMC7509555, “An In Vitro Study for Evaluating Permeability and Metabolism of Kurarinone” (Evidence-based Complementary and Alternative Medicine : eCAM, 2020)

Tested on: rat liver microsomes (RLMs)
Assay: Enzyme kinetics of P1 formation from kurarinone in RLMs
Type: in vitro ADME
Experimental: Samples were prepared in a total volume of 200 μL, containing 0.3 mg/mL protein in human liver microsomes or 15 nM protein in recombinant human supersomes, probe substrates or 50 μM kurarinone, 10 mM MgCl2, 10 mM glucose-6-phosphate, and 1 unit/mL of glucose-6-phosphate dehydrogenase. The reactions were activated by adding NADPH following preincubation at 37°C for 5 min. The reactions were maintained at 37°C for 1 h and terminated by adding 200 μL ice-cold acetonitrile. The supernatant (10 μL) collected from the samples that were centrifuged (20,000 g, 20 min, 4°C) was injected into the HPLC system for analysis. Control incubations devoid of NADPH or kurarinone were performed parallelly to ensure that the produced metabolites were NADPH- or kurarinone-dependent.
Various concentrations of kurarinone (1–200 μM) were incubated with RLMs, MLMs, PLMs, RAMs, CYP1A2, and CYP2D6 to estimate kinetic parameters. The rest of the other conditions remained the same as described in Section 2.3. […] The apparent Km and Vmax values were calculated from nonlinear regression analysis of experimental data according to the Michaelis–Menten equation, and the results were represented graphically by Eadie–Hofstee plots. All incubations were carried out as triplicate independent experiments, and kinetic constants were recorded as mean ± SD.

Vmax of P1 formation: 3.34 ± 0.19 nmol·min^−1·mg^−1 protein
Km (kurarinone 1–200 μM): 18.1 ± 3.91 µM
Structure (SMILES): C=C(C)[C@H](CC=C(C)C)Cc1c(O)cc(OC)c2c1O[C@H](c1ccc(O)cc1O)CC2=O [Kurarinone]
